Five compounds from patent US20210246115A1 (Bioimics AB, priority 2017, published 2021) can be followed below.

SMILES strings stand for the structures. Converted amounts (≈) assume the structure as drawn. Structures can show the parent of a compound that is named as a salt. Where two headings read alike, the source gives them in different places.

In assay [1] the test system is Enterococcus faecalis (ATCC29212). The experiment in a line: MIC, broth microdilution (CLSI), Enterococcus faecalis. Format: cell-based.
Assay [2] relates to Pseudomonas aeruginosa (ATCC27853). Nature of the assay: MIC, broth microdilution (CLSI), Pseudomonas aeruginosa. Type of assay: cell-based.
Assay [3] concerns Staphylococcus aureus subsp. aureus (ATCC29213). The experiment in a line: MIC, broth microdilution (CLSI), Staphylococcus aureus ATCC29213. Type of assay: cell-based. The conditions noted are these: Staphylococcus aureus.
The subject of assay [4] is E. coli RNase P RNA, M1 RNA. Nature of the assay: Inhibition of bacterial RNase P activity, IC50 determination (cleavage of pATSerUG by M1 RNA). The conditions noted are these: NI: No inhibition. Type of assay: biochemical.
Assay [5] deals with S. aureus MRSA ATCC 33591. The experiment in a line: MIC, S. aureus MRSA ATCC 33591. Format: cell-based. Particulars: Staphylococcus aureus, read-out: S. aureus MRSA ATCC 33591 MIC.
Assay [6] deals with S. aureus USA300 MRSA BAA-1717. The experiment in a line: MIC, S. aureus USA300 MRSA BAA-1717. The conditions noted are these: Staphylococcus aureus, read-out: S. aureus USA300 MRSA BAA-1717 MIC. Format: cell-based.
Assay [7] concerns E. faecium ATCC 700221. Nature of the assay: MIC, E. faecium ATCC 700221. Format: cell-based. Particulars: Enterococcus faecium.
The subject of assay [8] is S. pneumoniae ATCC 49619. The experiment in a line: MIC, S. pneumoniae ATCC 49619. Type of assay: cell-based. The conditions noted are these: Streptococcus pneumoniae, ATCC49619; Table XIV A. Gram-positive bacteria.
The test system of assay [9] is M. phlei ATCC 11758. Nature of the assay: MIC, M. phlei ATCC 11758. Type of assay: cell-based. The conditions noted are these: Mycolicibacterium phlei, ATCC11758; Table XIV A. Gram-positive bacteria.
Assay [10] concerns M. fortuitum ATCC 110. Nature of the assay: MIC, M. fortuitum ATCC 110. Format: cell-based. The conditions noted are these: Mycolicibacterium fortuitum, ATCC110; Table XIV A. Gram-positive bacteria.
Assay [11] has as its system E. coli JW5503 (efflux defective). Nature of the assay: MIC, E. coli JW5503 (efflux defective). Particulars: Escherichia coli, read-out: E. coli JW5503 (efflux defective) MIC. Type of assay: cell-based.
The test system of assay [12] is K. pneumoniae ATCC 43816. Nature of the assay: MIC, K. pneumoniae ATCC 43816. Format: cell-based. Particulars: Klebsiella pneumoniae, ATCC43816; Table XIV B. Gram-negative bacteria.
In assay [13] the test system is H. influenzae ATCC 49247. Nature of the assay: MIC, H. influenzae ATCC 49247. Format: cell-based. The conditions noted are these: Haemophilus influenzae, ATCC49247; Table XIV B. Gram-negative bacteria.
For assay [14], the system named is A. baumannii ATCC 17978. Nature of the assay: MIC, A. baumannii ATCC 17978. Type of assay: cell-based. Particulars: Acinetobacter baumannii, ATCC17978; Table XIV B. Gram-negative bacteria.
Assay [15] relates to P. aeruginosa NTUH974 (MDR). Nature of the assay: MIC, P. aeruginosa NTUH974 (MDR). Format: cell-based. Particulars: Pseudomonas aeruginosa, read-out: P. aeruginosa NTUH974 (MDR) MIC.
For assay [16], the system named is N. gonorrhoeae ATCC 700825. Nature of the assay: MIC, N. gonorrhoeae ATCC 700825. Type of assay: cell-based. The conditions noted are these: Neisseria gonorrhoeae, ATCC700825; Table XIV B. Gram-negative bacteria.
Assay [17] concerns H. pylori ATCC 43504. Nature of the assay: MIC, H. pylori ATCC 43504. Type of assay: cell-based. The conditions noted are these: Helicobacter pylori, ATCC43504; Table XIV B. Gram-negative bacteria.
Assay [18] relates to Escherichia coli (ATCC25922). The experiment in a line: MIC, broth microdilution (CLSI), Escherichia coli. The conditions noted are these: Escherichia coli.
[19] abbreviates: ATCC25922, read-out: E. coli ATCC 25922 MIC, Table XIII.
The mark [20] stands for this setting: ATCC25922, read-out: E. coli ATCC 25922 MIC, Table XIV B. Gram-negative bacteria.
[21] abbreviates: ATCC29212, Table XIV A. Gram-positive bacteria, read-out: E. faecalis ATCC 29212 MIC.
Where [22] appears, read: ATCC27853, Table XIV B. Gram-negative bacteria, read-out: P. aeruginosa ATCC 27853 MIC.
Setting [23] is: ATCC29213, Table XIII, read-out: S. aureus ATCC 29213 MIC.
Setting [24] is: ATCC29213, Table XIV A. Gram-positive bacteria, read-out: S. aureus ATCC 29213 MIC.
The mark [25] stands for this setting: Table XIV A. Gram-positive bacteria.
[26] abbreviates: ATCC700221, Table XIV A. Gram-positive bacteria, read-out: E. faecium ATCC 700221 MIC.
The mark [27] stands for this setting: Table XIV B. Gram-negative bacteria.

`N#Cc1ccc2c(c1)c(C(CCNCCCN)c1cccc(OC(F)(F)F)c1)cn2C1CCCCC1` (stereo not shown) [Compound 372, 3-(3-((3-aminopropyl)amino)-1-(3-(trifluoromethoxy)phenyl)propyl)-1-cyclohexyl-1H-indole-5-carbonitrile, dihydrochloride salt]: the MIC in assay [1] (ATCC29212, read-out: E. faecalis ATCC 29212 MIC) stood at 2 µg/mL; in assay [2] (ATCC27853, read-out: P. aeruginosa ATCC 27853 MIC), 8 µg/mL; in assay [3] (ATCC29213, read-out: S. aureus ATCC 29213 MIC, Table XIII), 4 µg/mL; in [3] (ATCC29213, read-out: S. aureus ATCC 29213 MIC, Table XIV A. Gram-positive bacteria), 2 µg/mL; in assay [5], 4 µg/mL; in assay [6], 2 µg/mL. For the same compound, the MIC in assay [7] (ATCC700221, read-out: E. faecium ATCC 700221 MIC) worked out at 2 µg/mL; in assay [8] it was 8 µg/mL; in assay [9] it was 4 µg/mL; in [10], 4 µg/mL; in [11], 2 µg/mL; in [12], 2 µg/mL. Further, the MIC in assay [13] worked out at 4 µg/mL; in assay [14], 4 µg/mL; in assay [15], 8 µg/mL; in assay [16] it was 4 µg/mL; in [17] it was 16 µg/mL; in assay [18] (setting [19]), 4 µg/mL. Moreover, in assay [18] (setting [20]), the MIC was determined as 2 µg/mL. Also, in assay [4], the IC50 is 9.1 µM.
As to `Cc1cccc(-c2ccc3c(c2)c(C2CCCC(NCCCN)C2)cn3C2CCCCC2)c1` (stereo not shown) [Compound 381, N1-(3-(1-cyclohexyl-5-(m-tolyl)-1H-indol-3-yl)cyclohexyl)propane-1,3-diamine], the MIC in assay [1] (setting [21]) turned out to be 2 µg/mL (≈ 4.51 µM); in assay [2] (setting [22]), 4 µg/mL (≈ 9.02 µM); in assay [3] (setting [23]) it was 2 µg/mL (≈ 4.51 µM); in assay [3] (setting [24]), 2 µg/mL (≈ 4.51 µM); in assay [5] (setting [25]), 2 µg/mL (≈ 4.51 µM); in assay [6] (setting [25]), 2 µg/mL (≈ 4.51 µM). The MIC in assay [7] (setting [26]) came out at 1 µg/mL (≈ 2.25 µM); in assay [8], 8 µg/mL (≈ 18 µM); in [9], 4 µg/mL (≈ 9.02 µM); in assay [10], 4 µg/mL (≈ 9.02 µM); in assay [11], 2 µg/mL (≈ 4.51 µM); in [12] it was 4 µg/mL (≈ 9.02 µM). For the same compound, the MIC came out at 2 µg/mL (≈ 4.51 µM) in [13]; 4 µg/mL (≈ 9.02 µM) in assay [14]; 8 µg/mL (≈ 18 µM) in assay [15] (setting [27]); 2 µg/mL (≈ 4.51 µM) in [16]; 8 µg/mL (≈ 18 µM) in assay [17]; 4 µg/mL (≈ 9.02 µM) in assay [18] (setting [19]). In addition, the MIC in assay [18] (setting [20]) is 2 µg/mL (≈ 4.51 µM). In [4], this compound registered a 50% inhibitory concentration (IC50) of 11 µM.
As for `Cc1cccc(C(CCNCCCN)c2cn(C3CCCCC3)c3cc(Br)ccc23)c1.Cl.Cl` (stereo not shown) [Compound 357, N1-(3-(6-bromo-1-cyclohexyl-1H-indol-3-yl)-3-(m-tolyl)propyl)propane-1,3-diamine hydrochloride salt], the MIC came to 2 µg/mL in [1] (setting [21]); 4 µg/mL in [2] (setting [22]); 4 µg/mL in assay [3] (setting [23]); 2 µg/mL in assay [3] (setting [24]); 2 µg/mL in [5] (setting [25]); 2 µg/mL in [6] (setting [25]). In addition, the MIC turned out to be 1 µg/mL in assay [7] (setting [26]); 8 µg/mL in [8]; 4 µg/mL in [9]; 4 µg/mL in [10]; 4 µg/mL in [11]; 2 µg/mL in [12]. Also, the MIC in assay [13] was 2 µg/mL; in [14], 4 µg/mL; in assay [15] (setting [27]), 4 µg/mL; in [16], 2 µg/mL; in assay [17], 16 µg/mL; in [18] (setting [19]) it was 4 µg/mL. Further, the MIC in assay [18] (setting [20]) turned out to be 2 µg/mL. In assay [4], the IC50 is 10 µM.
For the compound `Cl.Cl.NCCCNCCC(c1cn(C2CCCCC2)c2ccccc12)C1CCCCC1` (stereo not shown) [Compound 371, N1-(3-cyclohexyl-3-(1-cyclohexyl-1H-indol-3-yl)propyl)propane-1,3-diamine hydrochloride], the MIC in [1] (setting [21]) came to 4 µg/mL; in [2] (setting [22]) it was 8 µg/mL; in assay [3] (setting [23]) it was 4 µg/mL; in assay [3] (setting [24]), 4 µg/mL; in [5] (setting [25]) it was 4 µg/mL; in assay [6] (setting [25]), 4 µg/mL. In addition, the MIC turned out to be 2 µg/mL in assay [7] (setting [26]); 8 µg/mL in [8]; 4 µg/mL in assay [9]; 4 µg/mL in assay [10]; 2 µg/mL in assay [11]; 4 µg/mL in assay [12]. The MIC is 4 µg/mL in assay [13]; 4 µg/mL in assay [14]; 8 µg/mL in assay [15] (setting [27]); 2 µg/mL in [16]; 16 µg/mL in [17]; 2 µg/mL in assay [18] (setting [19]). The MIC in [18] (setting [20]) worked out at 2 µg/mL. For the same compound, 9 µM corresponded to half-maximal inhibition in assay [4] (hydrochloride) (IC50).
As to `Cc1cccc(-c2ccc3c(c2)c(CCCNCCCN)cn3C2CCCCC2)c1.Cl.Cl` [Compound 360, N1-(3-(1-cyclohexyl-5-(m-tolyl)-1H-indol-3-yl)propyl)propane-1,3-diamine hydrochloride salt], the MIC in assay [1] (setting [21]) came to 2 µg/mL; in [2] (setting [22]), 8 µg/mL; in assay [3] (setting [23]), 4 µg/mL; in [3] (setting [24]) it was 4 µg/mL; in assay [5] (setting [25]), 2 µg/mL; in assay [6] (setting [25]) it was 2 µg/mL. Besides, the MIC in assay [7] (setting [26]) amounted to 2 µg/mL; in assay [8], 8 µg/mL; in assay [9], 4 µg/mL; in assay [10] it was 4 µg/mL; in [11], 2 µg/mL; in [12], 4 µg/mL. The MIC was 2 µg/mL in [13]; 4 µg/mL in [14]; 8 µg/mL in [15] (setting [27]); 2 µg/mL in assay [16]; 8 µg/mL in [17]; 4 µg/mL in [18] (setting [19]). In assay [18] (setting [20]), the MIC was 2 µg/mL. Moreover, the concentration for half-maximal inhibition (IC50) in [4] was 7.8 µM.
